Results on 14 compounds are retold here after patent US11291648B2, “Powdered formulations of cromolyn sodium and alpha-lactose” (The General Hospital Corporation, priority 2018, dated 2022).

Data set [1] is described as follows: Particle size distribution (PSD) of formulation components. Type of data set: physicochemical. To be noted: for D90 / D10 / D50: Cromolyn API (micronized), Table 2; for D50 (<5 μm) / D90 (<10 μm): Magnesium Stearate (micronized), Table 4; for D10 (3-6 μm) / D50 (20-25 μm) / D90 (50-60 μm): α-Lactose (DFE Pharma Lactohale LH201), Table 3. The source says: The methodology included particle size determination (PSD); powdered x-ray crystallization diffraction (PXRD); and gravimetric vapor sorption (GVS).

The conditions of data set [2]: Table 5, Gilani et al.; cited from earlier work.

Where two headings read alike, the source gives them in different places.

Regarding `OC[C@H]1O[C@@H](O[C@H]2[C@H](O)[C@@H](O)[C@@H](O)O[C@@H]2CO)[C@H](O)[C@@H](O)[C@H]1O` [α-Lactose], the “Particle size D10” value worked out at 3 μm in data set [1] (component of Batch 1, Table 8); 4 μm in data set [1] (component of Batch 2, Table 8); 3 μm in data set [1] (component of Batch 3, Table 8). Also, the “Particle size D50” value in data set [1] (component of Batch 1, Table 8) was found to be 21 μm; in data set [1] (component of Batch 2, Table 8) it was 23 μm; in data set [1] (component of Batch 3, Table 8) it was 22 μm. Also, the “Particle size D90” value in data set [1] (component of Batch 1, Table 8) was 54 μm; in data set [1] (component of Batch 2, Table 8) it was 57 μm; in data set [1] (component of Batch 3, Table 8), 59 μm.

Regarding Magnesium Stearate [Mg St], the “Particle size D10” value in data set [1] (component of Batch 1, Table 8) stood at 3.3 μm. The “Particle size D50” value in data set [1] (component of Batch 1, Table 8) was found to be 8.3 μm; in data set [1] (component of Batch 2, Table 8), 4.82 μm; in data set [1] (component of Batch 3, Table 8), 4.33 μm. In addition, the “Particle size D90” value in data set [1] (component of Batch 1, Table 8) was 22.6 μm; in data set [1] (component of Batch 2, Table 8), 9.28 μm; in data set [1] (component of Batch 3, Table 8), 8.04 μm.

With `O=C(O)c1cc(=O)c2c(OCC(O)COc3cccc4oc(C(=O)O)cc(=O)c34)cccc2o1` [Lot # 15-0079, Cromolyn sodium], the D90 in data set [1] (listed as 15-0079) turned out to be 4.2 μm.

As for Magnesium Stearate [Lot 18-0038], in data set [1] (listed as 18-0038), the “D50 (<5 μm)” value turned out to be 4.33 μm and the “D90 (<10 μm)” value came to 8.04 μm.

For the compound `OC[C@H]1O[C@@H](O[C@H]2[C@H](O)[C@@H](O)[C@@H](O)O[C@@H]2CO)[C@H](O)[C@@H](O)[C@H]1O` [Lot# 15-0066, α-Lactose], in data set [1] (listed as 15-0066), the “D10 (3-6 μm)” value was found to be 4 μm, the “D50 (20-25 μm)” value came to 23 μm and the “D90 (50-60 μm)” value was 57 μm.

Consider `O=C(O)c1cc(=O)c2c(OCC(O)COc3cccc4oc(C(=O)O)cc(=O)c34)cccc2o1` [Cromolyn Sodium, Cromolyn sodium], for which, in data set [2], the D10 is reported as 0.7 ± 0.1, the D50 was 1.52 ± 0.2 and the D90 is given as 3.03 ± 0.02. Further, in data set [1] (component of Batch 1, Table 8), the “Particle size D10” value was 0.6 μm, the “Particle size D50” value amounted to 1.8 μm and the “Particle size D90” value was 3.8 μm. The “Particle size D90” value in data set [1] (component of Batch 2, Table 8) was 4.2 μm. Moreover, in data set [1] (component of Batch 3, Table 8), the “Particle size D10” value was 0.6 μm, the “Particle size D50” value is given as 1.8 μm and the “Particle size D90” value is on record as 3.8 μm.

Take `OC[C@H]1O[C@@H](O[C@H]2[C@H](O)[C@@H](O)[C@@H](O)O[C@@H]2CO)[C@H](O)[C@@H](O)[C@H]1O` [Lot# 13-0094, α-Lactose]: in data set [1] (listed as 13-0094), the “D10 (3-6 μm)” value was 3 μm, the “D50 (20-25 μm)” value is reported as 21 μm and the “D90 (50-60 μm)” value is 54 μm.

Regarding Magnesium Stearate [Lot 15-0077], in data set [1] (listed as 15-0077), the “D50 (<5 μm)” value stood at 4.82 μm and the “D90 (<10 μm)” value turned out to be 9.28 μm.

As for `OC[C@H]1O[C@@H](O[C@H]2[C@H](O)[C@@H](O)[C@@H](O)O[C@@H]2CO)[C@H](O)[C@@H](O)[C@H]1O` [Batch P450M, α-Lactose], in data set [2], the D10 is 2.5 ± 0.3 and the D90 was 26.5 ± 0.3.

As to `OC[C@H]1O[C@@H](O[C@H]2[C@H](O)[C@@H](O)[C@@H](O)O[C@@H]2CO)[C@H](O)[C@@H](O)[C@H]1O` [Lot# 16-0127, α-Lactose], in data set [1] (listed as 16-0127), the “D10 (3-6 μm)” value is recorded as 3 μm, the “D50 (20-25 μm)” value turned out to be 22 μm and the “D90 (50-60 μm)” value is 59 μm.

Consider Magnesium Stearate [Lot 14-0035], for which, in data set [1] (listed as 14-0035), the “D50 (<5 μm)” value turned out to be 3.56 μm and the “D90 (<10 μm)” value worked out at 6.74 μm.

Take `O=C(O)c1cc(=O)c2c(OCC(O)COc3cccc4oc(C(=O)O)cc(=O)c34)cccc2o1` [Lot # 15-0013, Cromolyn sodium]: in data set [1] (listed as 15-0013), the D10 is recorded as 0.6 μm, the D50 came to 1.8 μm and the D90 was found to be 3.8 μm.

Turning to `OC[C@H]1O[C@@H](O[C@H]2[C@H](O)[C@@H](O)[C@@H](O)O[C@@H]2CO)[C@H](O)[C@@H](O)[C@H]1O` [Batch P325M, α-Lactose], in data set [2], the D10 was 6.6 ± 0.8 and the D90 is reported as 74.1 ± 3.8.

In data set [1] (listed as 13-0105), `O=C(O)c1cc(=O)c2c(OCC(O)COc3cccc4oc(C(=O)O)cc(=O)c34)cccc2o1` [Lot # 13-0105, Cromolyn sodium] showed a D10 of 0.5 μm, a D50 of 1.9 μm and a D90 of 4.6 μm.
